Assay results: PubChem BioAssay (NCI)
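Interpolation was linear, between the two tested concentrations surrounding the appropriate level; five concentrations were tested over 48 hours in 96-well plates. Definition used: TGI = concentration required for complete inhibition of growth.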

Legend:
Assay in all cases: inhibition of tumour cell growth, NCI panel, 48 h
[1] = tested on: OVCAR-8 ovarian
[2] = tested on: HOP-92 NSCLC
[3] = tested on: MALME-3M melanoma
[4] = tested on: BT-549 breast
[5] = tested on: NCI-H23 lung
[6] = tested on: HS 578T breast
[7] = tested on: UACC-257 melanoma
[8] = tested on: NCI/ADR-RES ovarian
[9] = tested on: SNB-75 CNS
[10] = tested on: ACHN renal
[11] = tested on: SN12C renal
[12] = tested on: 786-0 renal
[13] = tested on: EKVX NSCLC
[14] = tested on: U251 CNS
[15] = tested on: MDA-MB-435
[16] = tested on: SF-295 CNS
[17] = tested on: SR leukemia
[18] = tested on: IGROV1 ovarian
[19] = tested on: MCF7 breast
[20] = tested on: NCI-H226 lung
[21] = tested on: SF-539 CNS
[22] = tested on: SNB-19 CNS
[23] = tested on: MDA-N
[24] = tested on: M14 melanoma
[25] = tested on: A498 renal
[26] = tested on: HCC-2998 colon
[27] = tested on: DU-145 prostate
[28] = tested on: SK-MEL-2 melanoma
[29] = tested on: OVCAR-4 ovarian
[30] = tested on: KM12 colon
[31] = tested on: CCRF-CEM leukemia
[32] = tested on: UACC-62 melanoma
[33] = tested on: SK-MEL-28 melanoma
[34] = tested on: HCT-116 colon
[35] = tested on: SW-620 colon
[36] = tested on: T-47D breast
[37] = tested on: NCI-H460 lung
[38] = tested on: SK-OV-3 ovarian
[39] = tested on: UO-31 renal
[40] = tested on: NCI-H522 lung
[41] = tested on: RPMI-8226 leukemia
[42] = tested on: SK-MEL-5 melanoma
[43] = tested on: MDA-MB-231 breast
[44] = tested on: COLO 205 colon
[45] = tested on: HT29 colon
[46] = tested on: PC-3 prostate
[47] = tested on: HCT-15 colon
[48] = tested on: HL-60(TB) leukemia
[49] = tested on: RXF 393 renal
[50] = tested on: TK-10 renal
[51] = tested on: CAKI-1 renal
[52] = tested on: K-562 leukemia
[53] = tested on: MOLT-4 leukemia
[54] = tested on: A549 NSCLC
[55] = tested on: LOX IMVI melanoma
[56] = tested on: OVCAR-5 ovarian
[57] = tested on: OVCAR-3 ovarian
[58] = tested on: HOP-62 NSCLC
[59] = tested on: SF-268 CNS

With `O=C(/C=C/c1ccccc1)CCN1CCCCC1` the TGI [1] was 38.4 µM, the TGI [2] was greater than 100 µM and the TGI [3] was greater than 100 µM. For the same compound, the TGI [4] was greater than 100 µM, the TGI [5] was 89.8 µM and the TGI [6] was greater than 100 µM. It also gave a TGI [7] greater than 100 µM, a TGI [8] greater than 100 µM and a TGI [9] greater than 100 µM. For the same compound, the TGI [10] was greater than 100 µM, the TGI [11] was 48.8 µM and the TGI [12] was 44.4 µM. The TGI [13] was greater than 100 µM, the TGI [14] was 65.6 µM and the TGI [15] was 84.4 µM. For the same compound, the TGI [16] was greater than 100 µM, the TGI [17] was greater than 100 µM and the TGI [18] was greater than 100 µM. It also gave a TGI [19] of 89.9 µM, a TGI [20] greater than 100 µM and a TGI [21] of 37.7 µM. For the same compound, the TGI [22] was greater than 100 µM, the TGI [23] was 60.1 µM and the TGI [24] was 32.4 µM. For the same compound, the TGI [25] was greater than 100 µM, the TGI [26] was greater than 100 µM and the TGI [27] was greater than 100 µM. It also gave a TGI [28] greater than 100 µM, a TGI [29] greater than 100 µM and a TGI [30] greater than 100 µM. It also gave a TGI [31] greater than 100 µM, a TGI [32] greater than 100 µM and a TGI [33] of 58.5 µM. It also gave a TGI [34] of 32.1 µM, a TGI [35] of 41.6 µM and a TGI [36] greater than 100 µM. It also gave a TGI [37] greater than 100 µM, a TGI [38] greater than 100 µM and a TGI [39] greater than 100 µM. It also gave a TGI [40] of 47.4 µM, a TGI [41] of 66.1 µM and a TGI [42] greater than 100 µM. It also gave a TGI [43] of 63.9 µM, a TGI [44] of 38.4 µM and a TGI [45] of 43.3 µM. It also gave a TGI [46] greater than 100 µM, a TGI [47] greater than 100 µM and a TGI [48] greater than 100 µM. For the same compound, the TGI [49] was 75 µM, the TGI [50] was greater than 100 µM and the TGI [51] was greater than 100 µM. It also gave a TGI [52] greater than 100 µM, a TGI [53] of 63.1 µM and a TGI [54] greater than 100 µM. The TGI [55] was 37.6 µM, the TGI [56] was greater than 100 µM and the TGI [57] was greater than 100 µM. It also gave a TGI [58] greater than 100 µM and a TGI [59] greater than 100 µM.
`CC(C)(C)OC(=O)/N=C/c1c(O)c2ccccc2oc1=O` showed a TGI [1] greater than 100 µM, a TGI [2] greater than 100 µM and a TGI [3] greater than 100 µM. It also gave a TGI [4] greater than 100 µM, a TGI [5] greater than 100 µM and a TGI [6] of 65.9 µM. The TGI [7] was greater than 100 µM, the TGI [8] was greater than 100 µM and the TGI [9] was greater than 100 µM. It also gave a TGI [10] greater than 100 µM, a TGI [11] greater than 100 µM and a TGI [12] greater than 100 µM. For the same compound, the TGI [13] was greater than 100 µM, the TGI [14] was greater than 100 µM and the TGI [15] was greater than 100 µM. It also gave a TGI [16] greater than 100 µM, a TGI [17] greater than 100 µM and a TGI [18] greater than 100 µM. The TGI [19] was greater than 100 µM, the TGI [20] was 64.7 µM and the TGI [21] was greater than 100 µM. For the same compound, the TGI [22] was greater than 100 µM, the TGI [23] was greater than 100 µM and the TGI [24] was greater than 100 µM. For the same compound, the TGI [25] was 78.5 µM, the TGI [26] was greater than 100 µM and the TGI [27] was greater than 100 µM. For the same compound, the TGI [28] was 45.2 µM, the TGI [29] was greater than 100 µM and the TGI [30] was greater than 100 µM. For the same compound, the TGI [31] was greater than 100 µM, the TGI [32] was greater than 100 µM and the TGI [33] was greater than 100 µM. The TGI [34] was greater than 100 µM, the TGI [35] was greater than 100 µM and the TGI [36] was greater than 100 µM. The TGI [37] was greater than 100 µM, the TGI [38] was 0.0852 µM and the TGI [39] was greater than 100 µM. The TGI [40] was 0.0208 µM, the TGI [41] was greater than 100 µM and the TGI [42] was greater than 100 µM. For the same compound, the TGI [43] was 86 µM, the TGI [44] was greater than 100 µM and the TGI [45] was greater than 100 µM. For the same compound, the TGI [46] was greater than 100 µM, the TGI [47] was greater than 100 µM and the TGI [48] was greater than 100 µM. It also gave a TGI [49] greater than 100 µM, a TGI [50] of 66.7 µM and a TGI [51] of 52.6 µM. It also gave a TGI [52] greater than 100 µM, a TGI [53] greater than 100 µM and a TGI [54] greater than 100 µM. For the same compound, the TGI [55] was greater than 100 µM, the TGI [56] was greater than 100 µM and the TGI [57] was greater than 100 µM. The TGI [58] was greater than 100 µM and the TGI [59] was greater than 100 µM.
Work on `O=C1C(Cl)=CC2(C=C1Cl)CCN=c1c(O)c3c(c(O)c12)=NC=N3` yielded a TGI [1] greater than 100 µM, a TGI [2] greater than 100 µM and a TGI [3] of 43.4 µM. The TGI [4] was 75.2 µM, the TGI [5] was 82.5 µM and the TGI [6] was greater than 100 µM. It also gave a TGI [7] of 52.4 µM, a TGI [8] greater than 100 µM and a TGI [9] greater than 100 µM. It also gave a TGI [10] greater than 100 µM, a TGI [11] greater than 100 µM and a TGI [12] greater than 100 µM. For the same compound, the TGI [13] was greater than 100 µM, the TGI [14] was 71.9 µM and the TGI [15] was 32.7 µM. The TGI [16] was greater than 100 µM, the TGI [17] was 36.5 µM and the TGI [18] was greater than 100 µM. It also gave a TGI [19] of 48.9 µM, a TGI [20] greater than 100 µM and a TGI [21] of 88.4 µM. For the same compound, the TGI [22] was greater than 100 µM, the TGI [23] was 33.6 µM and the TGI [24] was greater than 100 µM. It also gave a TGI [25] greater than 100 µM, a TGI [26] greater than 100 µM and a TGI [27] greater than 100 µM. The TGI [28] was 63.1 µM, the TGI [29] was greater than 100 µM and the TGI [30] was greater than 100 µM. It also gave a TGI [31] greater than 100 µM, a TGI [32] of 34.7 µM and a TGI [33] greater than 100 µM. It also gave a TGI [34] of 67.5 µM, a TGI [35] greater than 100 µM and a TGI [36] greater than 100 µM. The TGI [37] was greater than 100 µM, the TGI [38] was greater than 100 µM and the TGI [39] was greater than 100 µM. It also gave a TGI [40] of 51.8 µM, a TGI [41] of 80.9 µM and a TGI [42] of 30.8 µM. The TGI [43] was greater than 100 µM, the TGI [44] was 46.7 µM and the TGI [45] was 71.8 µM. The TGI [46] was greater than 100 µM, the TGI [47] was greater than 100 µM and the TGI [48] was 53.6 µM. For the same compound, the TGI [49] was 70.7 µM, the TGI [50] was greater than 100 µM and the TGI [51] was greater than 100 µM. For the same compound, the TGI [52] was greater than 100 µM, the TGI [53] was greater than 100 µM and the TGI [54] was greater than 100 µM. It also gave a TGI [55] of 50.4 µM, a TGI [56] greater than 100 µM and a TGI [57] of 89.1 µM. For the same compound, the TGI [58] was greater than 100 µM and the TGI [59] was greater than 100 µM.
